Laboratory results taken from US20070179060A1, “6-(Poly-substituted aryl)-4-aminopicolinates and their use as herbicides” (priority 2006, published 2007).

What was measured:
Assay type in all cases: in vivo
[1] = tested on: redroot pigweed (Amaranthus retroflexus); assay: Preemergence herbicidal activity; details: Amaranthus retroflexus, pre-emergence, 480 h, pre-emergent, after 20-22 days, read-out: % Control AMARE; for pest or weed control at 140 g/ha: 140 g ai/ha
How it was run: (§1)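 Seeds sown in 70:30 loam (pH about 8.1, about 1.5% organic matter) and sand mix, then sprayed preemergence at 187 L/ha with a track sprayer; controls received solvent blank. Pots kept in greenhouse, about 15 h photoperiod, about 23-29° C. day and 22-28° C. night, top-irrigated.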

[2] = tested on: lambsquarter (Chenopodium album); assay: Preemergence herbicidal activity; details: Chenopodium album, pre-emergence, 480 h, pre-emergent, after 20-22 days, read-out: % Control CHEAL; for pest or weed control at 140 g/ha: 140 g ai/ha
How it was run: as §1

[3] = tested on: velvetleaf (Abutilon theophrasti); assay: Preemergence herbicidal activity; details: Abutilon theophrasti, pre-emergence, 480 h, pre-emergent, after 20-22 days, read-out: % Control ABUTH; for pest or weed control at 140 g/ha: 140 g ai/ha
How it was run: as §1

[4] = tested on: Lamium purpureum; assay: Postemergence herbicidal activity in cereal crops; details: Lamium purpureum, post-emergence, 480 h, post-emergent, after 20-22 days, read-out: % Control LAMPU; for pest or weed control at 17.5 g/ha: 17.5 g ai/ha; for pest or weed control at 35 g/ha: 35 g ai/ha
How it was run: (§2)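 Greenhouse plants at the second or third true leaf stage are sprayed postemergence by track sprayer delivering 187 L/ha. Spray solution is an acetone/water/isopropanol/DMSO mixture with crop oil concentrate and Triton X-77. Treated plants are kept at about 18 °C day/17 °C night under a ~14 h photoperiod with sub-irrigation; blank-sprayed plants serve as controls.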

[5] = tested on: Papaver rhoeas; assay: Postemergence herbicidal activity in cereal crops; details: Papaver rhoeas, post-emergence, 480 h, post-emergent, after 20-22 days, read-out: % Control PAPRH; for pest or weed control at 17.5 g/ha: 17.5 g ai/ha; for pest or weed control at 35 g/ha: 35 g ai/ha
How it was run: as §2

[6] = tested on: Veronica persica; assay: Postemergence herbicidal activity in cereal crops; details: Veronica persica, post-emergence, 480 h, post-emergent, after 20-22 days, read-out: % Control VERPE; for pest or weed control at 17.5 g/ha: 17.5 g ai/ha; for pest or weed control at 35 g/ha: 35 g ai/ha
How it was run: as §2

[7] = tested on: rice (Orysa sativa var. Japonica); assay: Herbicidal activity in transplanted paddy rice; details: Oryza sativa, 504 h, transplant rice (crop), paddy water application, after 3 weeks; for pest or weed control at 17.5 g/ha: 17.5 g ai/ha; for pest or weed control at 70 g/ha: 70 g ai/ha
How it was run: (§3)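 Rice seedlings transplanted at second to third leaf stage and weeds from seed were grown in flooded mud pots in a greenhouse (~29/26 °C, 14 h photoperiod). At second or third true leaf stage, acetone stock solutions were injected into the paddy water at the high rate and ½× to 1/16× dilutions. Solvent-blank controls.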

[8] = tested on: Scirpus juncoides; assay: Herbicidal activity in transplanted paddy rice; details: Schoenoplectiella juncoides, 504 h, paddy water application, after 3 weeks, read-out: % Control SCPJU; for pest or weed control at 17.5 g/ha: 17.5 g ai/ha; for pest or weed control at 70 g/ha: 70 g ai/ha
How it was run: as §3

[9] = tested on: Monochoria vaginalis; assay: Herbicidal activity in transplanted paddy rice; details: Pontederia vaginalis, 504 h, paddy water application, after 3 weeks, read-out: % Control MOOVA; for pest or weed control at 17.5 g/ha: 17.5 g ai/ha; for pest or weed control at 70 g/ha: 70 g ai/ha
How it was run: as §3

[10] = tested on: Cyperus difformis; assay: Herbicidal activity in transplanted paddy rice; details: Cyperus difformis, 504 h, paddy water application, after 3 weeks, read-out: % Control CYPDI; for pest or weed control at 17.5 g/ha: 17.5 g ai/ha; for pest or weed control at 70 g/ha: 70 g ai/ha
How it was run: as §3

[11] = tested on: Echinochloa crus-galli; assay: Herbicidal activity in transplanted paddy rice; details: Echinochloa crus-galli, 504 h, paddy water application, after 3 weeks, read-out: % Control ECHCG; for pest or weed control at 17.5 g/ha: 17.5 g ai/ha; for pest or weed control at 70 g/ha: 70 g ai/ha
How it was run: as §3

SMILES	pest or weed control at 140 g/ha [1] [%]	pest or weed control at 140 g/ha [2] [%]	pest or weed control at 140 g/ha [3] [%]	pest or weed control at 17.5 g/ha [4] [%]	pest or weed control at 17.5 g/ha [5] [%]	pest or weed control at 17.5 g/ha [6] [%]	pest or weed control at 17.5 g/ha [7] [%]	pest or weed control at 17.5 g/ha [8] [%]	pest or weed control at 17.5 g/ha [9] [%]	pest or weed control at 17.5 g/ha [10] [%]	pest or weed control at 17.5 g/ha [11] [%]	pest or weed control at 70 g/ha [7] [%]	pest or weed control at 70 g/ha [8] [%]	pest or weed control at 70 g/ha [9] [%]	pest or weed control at 70 g/ha [10] [%]	pest or weed control at 70 g/ha [11] [%]	other results
COC(=O)c1nc(-c2ccc(Cl)c(OC)c2F)cc(N)c1Cl [Compound 42, 4-Amino-3-chloro-6-(4-chloro-2-fluoro-3-methoxyphenyl)pyridine-2-carboxylic acid methyl ester]	100	100	100	100	99	60	5	90	100	100	40	–	–	–	–	–	–
COC(=O)c1nc(-c2ccc(F)c(OC)c2F)cc(N)c1Cl [Compound 70, 4-Amino-3-chloro-6-(2,4-difluoro-3-methoxyphenyl)pyridine-2-carboxylic acid, methyl ester]	100	100	100	100	99	60	–	–	–	–	–	0	95	100	95	45	–
COC(=O)c1nc(-c2c(F)cc(Br)c(OC)c2F)cc(N)c1Cl [Compound 77, 4-Amino-6-(4-bromo-2,6-difluoro-3-methoxyphenyl)-3-chloropyridine-2-carboxylic acid, methyl ester]	100	100	100	100	99	65	–	–	–	–	–	–	–	–	–	–	pest or weed control at 35 g/ha ([7]; 35 g ai/ha): 0%; pest or weed control at 35 g/ha ([8]; 35 g ai/ha): 99%; pest or weed control at 35 g/ha ([9]; 35 g ai/ha): 100%; pest or weed control at 35 g/ha ([10]; 35 g ai/ha): 100%; pest or weed control at 35 g/ha ([11]; 35 g ai/ha): 70%
COC(=O)c1nc(-c2c(F)cc(Cl)c(OC)c2F)cc(N)c1Cl [Compound 58, 4-Amino-3-chloro-6-(4-chloro-2,6-difluoro-3-methoxyphenyl)pyridine-2-carboxylic acid, methyl ester]	100	100	100	100	99	60	0	50	100	100	30	–	–	–	–	–	–
COc1c(Cl)ccc(-c2cc(N)c(Cl)c(C(=O)O)n2)c1Cl [Compound 103, 4-Amino-3-chloro-6-(2,4-dichloro-3-methoxyphenyl)pyridine-2-carboxylic acid]	–	–	–	–	–	–	–	–	–	–	–	10	95	100	100	40	pest or weed control at 123 g/ha ([1]; 123 g ai/ha): 100%; pest or weed control at 123 g/ha ([2]; 123 g ai/ha): 100%; pest or weed control at 123 g/ha ([3]; 123 g ai/ha): 90%; pest or weed control at 35 g/ha [4]: 95%; pest or weed control at 35 g/ha [5]: 100%; pest or weed control at 35 g/ha [6]: 75%
COC(=O)c1nc(-c2ccc(Cl)c(OC)c2Cl)cc(N)c1Cl [Compound 44, 4-Amino-3-chloro-6-(2,4-dichloro-3-methoxyphenyl)pyridine-2-carboxylic acid methyl ester]	30	95	95	–	–	–	–	–	–	–	–	0	95	90	100	50	pest or weed control at 35 g/ha [4]: 99%; pest or weed control at 35 g/ha [5]: 90%; pest or weed control at 35 g/ha [6]: 60%
COC(=O)c1nc(-c2ccc(Br)c(OC)c2F)cc(N)c1Cl [Compound 27, 4-amino-6-(4-bromo-2-fluoro-3-methoxyphenyl)-3-chloro-pyridine-2-carboxylic acid methyl ester]	100	90	100	100	100	50	0	99	100	100	45	–	–	–	–	–	–
COc1c(Cl)ccc(-c2cc(N)c(Cl)c(C(=O)O)n2)c1F [Compound 100, 4-Amino-3-chloro-6-(4-chloro-2-fluoro-3-methoxyphenyl)pyridine-2-carboxylic acid]	100	100	100	100	95	65	10	80	100	100	30	–	–	–	–	–	–
